Laboratory results taken from patent US20160311795A1, “PYRIMIDINE DIAMINE DERIVATIVES AS INHIBITORS OF CYTOSOLIC HSP90” (CALASIA PHARMACEUTICALS, INC., priority 2012, published 2016).
Where two headings read alike, the source gives them in different places.

Key:
Akt1 = assay: Rat CNS biomarker assay, Akt1 ELISA in CNS lysates; format: in vivo; conditions: intraperitoneally, versus vehicle
[1] = Rat CNS exposure (plasma and CNS tissue concentration, LC-MS/MS); format: in vivo; conditions: ex-vivo CNS tissue
Procedure: Test subjects (Sprague-Dawley rats) were housed in sterile vivarium with controlled temperature, humidity and 12-hour light-dark cycle (7:00 lights-on and 19:00 lights-off). Following procurement, rats were acclimated to the vivarium facility for 7 days prior to study day-1 with ad libitum access to both diet and water. Bedding was changed twice weekly. […] On study day-1 rats were administered vehicle or Hsp90 inhibitor formulation. Following administrations of test article formulation, blood and CNS tissue was collected at 6.5 h post-dosed by a necropsy procedure. In detail, CNS tissue was isolated from the Vehicle and dose groups, divided into 2 mid-sagittal sections, placed in tarred 1 mL micro-centrifuge tubes, weighed and immediately frozen on dry ice. Blood was isolated by a cardiac puncture procedure from the Vehicle and Hsp90 inhibitor dose groups. From these samples, plasma was isolated in plasma separator tubes containing ethylenediaminetetraacetic acid as the anticoagulant. HSP90 inhibitor concentrations in plasma and CNS tissue were determined using LC-MS/MS based methods following a 60% acetonitrile extraction.

human full length Hsp90 = molecular target: T1, human full length Hsp90 (Homo sapiens, UniProt P07900); assay: Fluorescence polarization Hsp90 competitive binding assay (GM-FITC displacement)
T1 construct: amino acid residues 1 to 732 of human Hsp90 (GenBank: BC121062.2); made in house; host or cells: E. coli BL21DE3 (pET15b)
Procedure: Hsp90 binding assays was performed generally according to the procedure described in J. Biomol. […] Hsp90 inhibitors were solubilized in DMSO at a stock concentration of 50 mM. […] Eighty five μl of binding assay buffer (20 mM HEPES, pH-7.5, 50 mM KCl, 5 mM MgCl2, 20 mM sodium molybdate, 0.01% NP-40, 2 mM DTT, and 0.1 mg/ml BSA) was added to the wells of a 96 well black plate placed on ice. […] Next, 10 μl either binding assay buffer alone (control) or human full length Hsp90 protein diluted in the binding assay buffer was added to achieve a final concentration of 50 nM. The plates were incubated at 4° C. on a plate shaker for 24 h. Two μl of 50× GM-FITC (9 nM final) in DMSO was added to all wells and the plate was incubated at ambient temperature for 1 h with shaking. Fluorescence polarization readings were taken in duplicate at excitation and emission wavelengths of 480 nm and 500 nm respectively. Specific binding was calculated by subtracting polarization values in the presence of Hsp90 from those in the absence of Hsp90. To calculate percent inhibition the specific binding values obtained for GA-FITC in the presence of compound were compared to values for GA-FITC in the absence of compound (DMSO only).

U87MG = assay: Efficacy in GBM cells, ADP-GLO; format: cell-based; conditions: Homo sapiens, U-87 MG
[2] = tested on: Hsp70 in MBA-MD-231 cells; assay: Hsp70 induction, ELISA; format: cell-based; conditions: MBA-MD-231, 48 hours
Procedure: (§1) Experiments were performed using U251 MG and MBA-MD-231 cells to also measure induction of Hsp 70 in response to treatment with SBI-0640725. […] For Hsp70 induction measurements, cells were treated with increasing concentrations of SBI-0640725 for 48 hours, and Hsp70 levels were measured in cell lysates using ELISA.

EGFR in U251MG cells = assay: Hsp90 client protein stability, EGFR; format: cell-based, human; conditions: 48 hours, increasing concentrations
MDA-MB-231 = assay: Cell viability / efficacy in breast cancer cells; format: cell-based
Procedure: The effect of SBI-0640725 on cell viability was determined by measuring cellular dehydrogenase activity (U251MG and MBA-MD-231 cells) or by measuring ADP levels (HepG2) after treating cells for 72 hours with increasing concentrations of SBI-0640725. To measure dehydrogenase activity, CCK-8 kit reagent (Dojindo) was added to the wells and incubated for 2 hours, after which absorbance was measured at 450 nm using a Synergy HT micro-titer plate reader (Biotek). To measure ADP levels, ADP-GLO reagent (Life Technologies) was added to the wells, and luminescence was measured after a 30 minute incubation using a POLARstar Omega micro-titer plate reader (BMG).
The table below summarizes efficacy of SBI-0640725 in various cancer cell lines, including U251MG, MDA-MB-231, and HepG2, using ADP-GLO assay described above. As used herein “efficacy” (EC50) is the concentration of a compound that produces half-maximal response in a cellular assay.

Hsp70 in U251 MG cells = assay: Hsp70 induction, ELISA; format: cell-based, human; conditions: U251MG, 48 hours
Procedure: as §1

U251MG cells = assay: Mitochondrial integrity in cells, TMRE fluorescence; format: cell-based, human; conditions: 48 hours
Procedure: Additional experiments were performed to determine the effect of SBI-0640725 on mitochondrial integrity. U251MG cells were treated with tetramethylrhodamine ethyl ester (TMRE), and fluorescence was visualized using fluorescence confocal microscopy (FIG. 16 panel A), or quantitated using a fluorimeter (FIG. 16 panel B) after cells had been treated with increasing concentrations of SBI-0640725 for 48 hours. […] In experiments using isolated mitochondria, mitochondrial membrane potential was determined as a measure of mitochondrial integrity. TMRE-loaded mitochondria isolated from U251MG cells were treated with either 10 μM (left bar of the pair in FIG. 17) or 2 μM (right bar of the pair in FIG. 17) SBI-0640725 while continually monitoring changes in fluorescence intensity at 30° C.

[3] = tested on: Caspase 3/7 activity in U251MG cells; assay: Cellular Caspase-3/7 luminescence assay; format: cell-based, human; conditions: 72 hours
Procedure: Further, the effect of SBI-0640725 on cellular caspase levels was also quantitated in U251MG, MBA-MD-231 and HepG2 cells. Each cell type was treated with increasing concentrations of SBI-0640725 for 72 hours. Quantification of total cellular Caspase-3 and 7 activity was accomplished using a Caspase-3/7 luminescence assay kit (Promega) according to the manufacturer's recommendations, and analyzed with a POLARstar Omega micro-titer plate reader (BMG). […] Caspase activity is a marker for apoptotic cell death.

[4] = IC50, inhibition of Hsp90 activity, FIG. 7 concentration response
[5] = Table 1, 50 nM Hsp90, 9 nM GM-FITC, read-out: Biochemical Potency IC50
[6] = Table II, binding affinities ranked by potency
[7] = Table II, binding affinities ranked by potency, read-out: IC50

| Compound | Akt1 level in CNS tissues (Akt1) | partitioning CNS (brain) versus plasma [1] | partitioning CNS (brain) versus plasma ([1]; listed as SB-0639353) | IC50 (human full length Hsp90; [4]) | IC50 (human full length Hsp90; [5]) | Ki (human full length Hsp90; [6]) | IC50 (human full length Hsp90; [7]) | IC50 (human full length Hsp90; assay validation / precision runs, read-out: IC50) | EC50 (U87MG) | induction of Hsp70 [2] | level of the client protein EGFR (EGFR in U251MG cells) | EC50 (MDA-MB-231; Homo sapiens, Breast Cancer, MDA-MB-231, ADP-GLO) | cell viability (MDA-MB-231; MBA-MD-231, 72 hours, dehydrogenase activity (CCK-8)) | induction of Hsp70 (Hsp70 in U251 MG cells) | mitochondrial integrity (retention of de-esterified TMRE) (U251MG cells) | Caspase 3/7 activity [3] |
| --- | --- | --- | --- | --- | --- | --- | --- | --- | --- | --- | --- | --- | --- | --- | --- | --- |
| COc1c(C)cnc(CN(CCc2ccccc2)c2cc(Cl)nc(N)n2)c1C [SBI-0639353, 6-Chloro-N4-((4-methoxy-3,5-dimethylpyridin-2-yl)methyl)-N4-phenethylpyrimidine-2,4-diamine] | a decrease in its levels compared to vehicle treated rats | preferential partitioning into the brain compared to plasma | preferential partitioning | 255 nM | 255 nM | 64 nM | 255 nM | 255 to 308 nM | – | – | – | – | – | – | – | – |
| COc1c(C)cnc(CN(CCc2ccc(F)cc2)c2cc(Cl)nc(N)n2)c1C [SBI-0640725] | – | – | – | 101 nM | 101 nM | 25 nM | 101 nM | – | 6700 nM | caused induction of Hsp70 | observed to decrease | 2400 nM | reduction in cell viability | caused induction of Hsp70 | decrease proportionately with increasing concentrations | increase in Caspase 3/7 activity |
